# From patent publication US8093273B2, “Flavanoids and isoflavanoids for the prevention and treatment of cardiovascular diseases” (Resverlogix Corp., priority 2004, dated 2012)
# Where two headings read alike, the source gives them in different places.
# What was measured:
# [1] = test system: human ApoA-I promoter; experiment: ApoA-I promoter induction in Caco-2 intestinal cells (pAI.474-Luc luciferase reporter); format: cell-based; details: Caco-2 cells, 15 μM, 48 hours incubation, luciferase activity vs control samples
# Experimental: To examine the effects of compounds of the invention to increase ApoA-I expression, Caco-2 cells, an intestinal cell line derived from human epithelial intestinal cells, were grown under conditions recommended by the ATCC and summarized in United States Patent Application Publication No. 20040033480 (“Wong”), incorporated herein by reference.
# Briefly, the promoter region of the gene encoding human ApoA-I was isolated and ligated upstream of the firefly luciferase gene to construct the reporter plasmid pAI.474-Luc. This reporter plasmid and pRSV-β-galactosidase (as a control for transfection efficiency) were co-transfected to Caco-2 cells. The Caco-2 cells were then incubated in a MEM selection media containing 20% fetal calf serum supplemented with G418 (final concentration: 0.5 mg/mL, Gibco) to give established strains that stably express from the reporter gene. The strains were seeded in 6-well culture plates and incubated for 48 hours at 37° C. under 5% carbon dioxide. Cells were starved for 24 hrs in MEM selection media containing 0.5% FBS. Then, a solution of a compound of the invention in DMSO or other appropriate solvent was added to the wells at a final concentration of 0 to 100 μM in MEM selection media containing 0.5% FBS.
# After further incubation for 48 hours, the cells were harvested and lysed using Reporter Lysis Buffer (PROMEGA E3971), and 50 μL of luciferase assay reagent (PROMEGA E4550 Luciferase Reporter 1000 assay system) was added to measure luciferase activity with a luminometer (Fluoroskan Ascent FL from Thermo electron Corporation). Luciferase activity was normalized to lysate protein concentrations, measured using Bradford Reagent (BioRad Protein Assay reagent Cat #500-0006). The luciferase activity of cells treated with various concentrations of test compounds was compared to that of solvent control sample (i.e., solvent without any compound of the present invention added) and untreated control sample.
# [2] = Caco-2 permeability; format: in vitro ADME, human; details: human
# Excerpt: The Caco-2 cell drug transport model is widely used for screening compounds in drug discovery to assess intestinal transport and predict absorption rates.
# [3] = test system: hApoA-I transgenic mice; experiment: hApoA-I transgenic mice, oral gavage for 14 days; format: in vivo; details: for change in vivo at 10 mg/kg / change in vivo at 30 mg/kg: Mus musculus, po, 336 h, relative to pretreatment, read-out: ApoA-I (% change); for change in vivo at 10 mg/kg: 10 mg/kg BID 14 days; for change in vivo at 30 mg/kg: 30 mg/kg BID 14 days
# Excerpt: To test whether the efficacy of compounds of the invention observed in vitro extended to an in vivo model, transgenic mice carrying multiple copies of the human ApoA-I gene (C57BI/6-tgn(apoa1)1 rub, Jackson Laboratory, Bar Harbor, Me.) were exposed to representative compounds of the invention. The exogenous human ApoA-I gene in these mice enables them to express the human ApoA-I protein under the control of this promoter.
# Seven to eight week old male mice, transgenic for human ApoA-I were housed five per cage (10″×20″×8″ with aspen chip bedding) with pelleted Rodent chow [Purina 5001] and water available at all times. After an acclimation period of 1 week, animals were individually identified by numbering on tail and weighed. Mice were pre bled via the retro-orbital plexus, and 150 μl of blood was collected in 1.5 ml Eppendorf tube containing 1 μl of heparin and chilled on ice. Plasma was collected after centrifuging the whole blood at 14000 rpm [TOMY high speed micro-refrigerated centrifuge NTX-150] for 10 minutes at 4° C. and frozen at −80° C. Plasma was analyzed for: human ApoA-I by a human ApoA-I enzyme-linked Immunoassay [Direct Sandwich ELISA Calbiochem Cat#178422, Calbiochem Cat#178452, lot #B9076, Calbiochem Cat #178470 conjugated to Horse Radish Peroxidase (Cedarlane Cat#80220)]; total cholesterol [Ponte scientific reagents: # C7509-STD, #L7580-18, # C7510]; and triglyceride [Pointe Scientific Reagents: # 7532-STD, # L7580-18, #7532]. All samples were measured in triplicates and expressed as mg/dl. Mice were grouped based on the above plasma parameters and having an average body weight of 25 gm.
# Two days following pre-bleed, mice were dosed by oral gavage daily for 14 days using a 20 gauge, 11/2″ curved disposable feeding needle [Popper & Sons]; when BID, mice were gavaged morning and afternoon (8 am and 5 pm); when SID mice were gavaged in morning (8 am). Compounds were prepared each day in vehicle. Test article(s), a positive control fenofibrate, and vehicle were dosed at volume of 5 mL/kg of body weight as a suspension (0.1 mL/20 g mouse). Fenofibrate was obtained commercially [SIGMA #F 6020]. Mice weights were recorded on day 1, 4, 7, 10, 12, and 15. On day 15, mice were weighed and fasted for 4 hours, sacrificed by inhalation of CO2 and blood was obtained via cardiac puncture (0.7-1.0 ml). Plasma was collected and frozen at −80° C. Samples were assayed for ApoA-I, total cholesterol, triglyceride and HDL-C by HPLC [Polaris 200 with an auto sampler Prostar 410 from Varian on a Superose 6 10/30 column from Amersham]. Samples were sent for NMR analysis [LipoScience] to identify particle size and subclass for lipoproteins. During necropsy, liver, brown fat, and the whole of small and large intestines were collected, cleaned with cold PBS and frozen at −80° C. for further analysis of compound levels. Variation between studies, in ApoA-I changes, was observed. Therefore, a relative comparison between individual(s) in the study groups was used.
# 4′-hydroxyflavone (10 mg/kg of body weight), 4-(4-oxo-4H-chromen-2-yl)phenyl nicotinate (Example 71) (10 mg/kg of body weight) and fenofibrate (100 mg/kg of body weight) were BID administered to hApoA-I transgenic mice daily for fourteen days by oral gavage in 0.5% Methylcellulose (w/v)/1% Tween 80 (w/v). Plasma was assayed for ApoA-I (FIG. 3A), HDL cholesterol and total cholesterol (FIG. 3B) and percent weight gain (FIG. 3C).
# 4′-hydroxyflavone (3 mg/kg of body weight), 4′-hydroxyflavone (10 mg/kg of body weight), 4′-hydroxyflavone (30 mg/kg of body weight), 2-(4-Hydroxy-phenyl)-pyrano[2,3-b]pyridin-4-one (10 mg/kg of body weight), and fenofibrate (100 mg/kg of body weight) were BID administered to hApoA-I transgenic mice daily for fourteen days by oral gavage in 0.5% methylcellulose (w/v)/1% Tween 80 (w/v). In this experiment plasma was assayed for ApoA-I. […]
# [4] = Table 6 third group, Control 3 (F-101) (6.32)
# [5] = Table 6 fourth group, Control 3 1.11
# [6] = in vitro Caco-2 intestinal transport model, read-out: % Transported Paap
smiles,measurement,setting,value
"O=c1cc(-c2ccncc2)oc2ccccc12 [Example 47, 2-pyridin-4-yl-chromen-4-one]",ApoA-I Promoter Induction,[1],increased
same,Papp,[2]; Caco-2,6.48 ×10⁻⁶ cm/s
same,change in vivo at 10 mg/kg,[3]; [4],22.7%
"CC(C)OC(=O)C(C)(C)Oc1ccc(C(=O)c2ccc(Cl)cc2)cc1 [fenofibrate, reference compound]","liver weight gain normalized to body weight, compared to vehicle","[3]; Experiment A, 100 mg/kg BID, day 15, male mice",significant increase
same,change in vivo at 30 mg/kg,[3]; [5],68.9%
same,change in vivo at 30 mg/kg,"[3]; Table 6 second group, Control 1 3.42",127%
same,change in vivo at 30 mg/kg,"[3]; Table 6 third group, Control 3 (6.32)",74.4%
"Cc1cc(-c2cc(=O)c3ccccc3o2)cc(C)c1O [Example 7, 2-(4-hydroxy-3,5-dimethylphenyl)chromen-4-one]",ApoA-I Promoter Induction,[1],increased
same,melting point,,255 to 256 °C
same,Papp,[2]; Caco-2,0.695 ×10⁻⁶ cm/s
"O=c1cc(-c2ccc(O)nc2)oc2ccccc12 [Example 48, 2-(6-Hydroxypyridin-3-yl)-chromen-4-one]",ApoA-I Promoter Induction,[1],no increase
same,melting point,,296 to 297 °C
same,change in vivo at 10 mg/kg,[3]; [5],4.94%
"O=c1cc(-c2ccccc2)oc2cc(O)cc(O)c12 [5,7-Dihydroxy-2-phenyl-4H-chromen-4-one, 5,7-Dihydroxy-2-phenyl-chromen-4-one, reference compound]",ApoA-I Promoter Induction,[1],increased
same,Papp,[2]; [6],0.122 ×10⁻⁶ cm/s
"O=c1cc(-c2ccc(O)cc2)[nH]c2ccccc12 [Example 51, 2-(4-Hydroxy-phenyl)-1H-quinolin-4-one]",ApoA-I Promoter Induction,[1],no increase
same,change in vivo at 10 mg/kg,[3]; [4],32.8%
"O=c1cc(-c2ccc(O)cc2)oc2ncccc12 [2-(4-hydroxy-phenyl)-pyrano[2,3-b]pyridin-4-one]","plasma ApoA-I, net % change over vehicle","[3]; Experiment B, 10 mpk BID oral gavage, two weeks",3.75%
"COc1ccc2c(=O)cc(-c3ccc(O)cc3)oc2c1 [7-methoxy-2-(4-hydroxyphenyl)-4H-chromen-4-one, reference compound]",Papp,[2]; [6],6.92 ×10⁻⁶ cm/s
"O=c1cc(-c2ccc(O)cc2)oc2cnccc12 [Example 36, 2-(4-Hydroxyphenyl)pyrano[2,3-c]pyridin-4-one]",ApoA-I Promoter Induction,[1],increased
same,melting point,,294 to 296 °C
same,change in vivo at 10 mg/kg,[3]; [5],17%
"O=c1cc(-c2ccc(O)cc2)oc2c[n+]([O-])ccc12 [Example 30, 2-(4-Hydroxyphenyl)-4-oxo-4H-pyrano[2,3-c]pyridine 7-oxide]",ApoA-I Promoter Induction,[1],no increase
same,melting point,,307 to 308 °C
"CC(=O)Oc1ccc(-c2cc(=O)c3cccnc3o2)cc1 [Example 75, 4-(4-Oxo-4H-pyrano[2,3-b]pyridine-2-yl)phenyl acetate]",ApoA-I Promoter Induction,[1],increased
same,melting point,,167 to 169 °C
"O=c1cc(-c2ccc(O)cc2)oc2cc(O)cc(O)c12 [5,7-dihydroxy-2-(4-hydroxyphenyl)-4H-chomen-4-one, reference compound]",Papp,[2]; [6],1.5 ×10⁻⁶ cm/s
"COc1cccc2c(=O)cc(-c3ccc(O)cc3)oc12 [Example 17, 2-(4-Hydroxyphenyl)-8-methoxy-4H-chromen-4-one]",ApoA-I Promoter Induction,[1],increased
same,melting point,,281 to 283 °C
"O=c1cc(-c2ccc(O)cn2)oc2ccccc12 [Example 46, 2-(5-hydroxy-pyridin-2-yl)-chromen-4-one]",ApoA-I Promoter Induction,[1],increased
same,Papp,[2]; Caco-2,1.23 ×10⁻⁶ cm/s
same,change in vivo at 10 mg/kg,[3]; [4],5.62%
"COCc1c(-c2ccc(O)cc2)oc2ccccc2c1=O [Example 26, 2-(4-Hydroxyphenyl)-3-(methoxymethyl)-4H-chromen-4-one]",ApoA-I Promoter Induction,[1],increased
same,melting point,,237 to 239 °C
"O=c1cc(-c2ccc(O)cc2)oc2cccnc12 [Example 35, 2-(4-hydroxy-phenyl)-pyrano[3,2-b]pyridin-4-one]",ApoA-I Promoter Induction,[1],increase
same,Papp,[2]; Caco-2,1.98 ×10⁻⁶ cm/s
"Cc1cc(-c2cc(=O)c3cccnc3o2)ccc1O [Example 38, 2-(4-hydroxy-3-methylphenyl)-4H-pyrano[2,3-b]pyridine-4-one]",ApoA-I Promoter Induction,[1],increased
same,melting point,,300 to 302 °C
same,Papp,[2]; Caco-2,0.596 ×10⁻⁶ cm/s
"CC(=O)Oc1ccc(C2=CC(C)(C)c3ccccc3O2)cc1 [Example 69, 4-(4,4-Dimethyl-4H-chromen-2-yl)phenyl acetate]",ApoA-I Promoter Induction,[1],increased
same,melting point,,84 to 86 °C
"O=c1c(-c2ccc(O)cc2)coc2ccccc12 [Example 84, 3-(4-Hydroxyphenyl)-4H-chromen-4-one]",ApoA-I Promoter Induction,[1],increased
same,melting point,,237 to 238 °C
"Cn1c(-c2ccc(O)c(F)c2)cc2ncccc2c1=O [Example 56, 7-(3-Fluoro-4-hydroxyphenyl)-6-methyl-1,6-naphthyridin-5(6H)-one]",ApoA-I Promoter Induction,[1],no increase
same,melting point,,182 to 184 °C
"O=c1cc(-c2cc(F)c(O)c(F)c2)oc2ccccc12 [Example 6, 2-(3,5-difluoro-4-hydroxyphenyl)chromen-4-one]",melting point,,275 to 276 °C
same,Papp,[2]; Caco-2,0.531 ×10⁻⁶ cm/s
"CC(=O)Oc1ccc(-c2cc(=O)c3ccccc3o2)cc1 [Example 72, 4-(4-oxo-4H-chromen-2-yl)phenyl acetate]",ApoA-I Promoter Induction,[1],increased
same,Papp,[2]; Caco-2,2.65 ×10⁻⁶ cm/s
